Substitutions are numbered along the chain they refer to. Entries after “also recorded” stand apart in the source; their conditions may differ.
Assays:
[1] = biological target: T1, LCAT R244A (Homo sapiens, UniProt P04180, R268A); experiment: Differential scanning fluorimetry; assay type: binding; details: addition of compound 1
T1 construct: hydrolysis of 4-methylumbelliferyl palmitate (MUP) by full-length LCAT; made in house; host or cells: HEK293F (transient transfection, secreted)
T1 sequence (P04180 25-440 R268A): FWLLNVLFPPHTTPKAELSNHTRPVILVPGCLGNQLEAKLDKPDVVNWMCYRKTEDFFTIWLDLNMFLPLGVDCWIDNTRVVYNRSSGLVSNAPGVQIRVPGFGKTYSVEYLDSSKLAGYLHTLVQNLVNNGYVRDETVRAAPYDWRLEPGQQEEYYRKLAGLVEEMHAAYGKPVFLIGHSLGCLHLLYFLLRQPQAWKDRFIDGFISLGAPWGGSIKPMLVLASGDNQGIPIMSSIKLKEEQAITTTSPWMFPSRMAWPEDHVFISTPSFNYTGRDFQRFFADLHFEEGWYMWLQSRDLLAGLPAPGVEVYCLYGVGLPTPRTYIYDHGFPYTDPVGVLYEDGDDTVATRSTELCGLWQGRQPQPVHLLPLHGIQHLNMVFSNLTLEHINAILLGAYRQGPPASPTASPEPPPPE
Description: (§1) Tm values were determined using an Applied Biosystems QuantStudio 7 Flex qPCR machine with two replicates performed at least in triplicate. LCAT at 0.05 mg mL^−1 was diluted into reaction buffer containing 5X Sypro Orange in a final volume of 10 μL in 384-well PCR plates. DMSO or compound 1 was added so that all reactions contained 3% DMSO. The reactions were run from 25–95 °C with a ramp rate of 0.03 °C s^−1. Tm values were determined as the derivative using Protein Thermal Shift software. Significance was determined using a one-way analysis of variance followed by Tukey’s multiple comparisons post-test in GraphPad Prism.

[2] = biological target: T2, LCAT R244H (Homo sapiens, UniProt P04180, R268H); experiment: Differential scanning fluorimetry; assay type: binding; details: addition of compound 1
T2 construct: hydrolysis of 4-methylumbelliferyl palmitate (MUP) by full-length LCAT; made in house; host or cells: HEK293F (transient transfection, secreted)
T2 sequence (P04180 25-440 R268H): T1 sequence (P04180 25-440 R268A) with A244H
Description: as §1

[3] = biological target: T3, ∆N∆C-IDFP LCAT (Homo sapiens, UniProt P04180); experiment: Differential scanning fluorimetry; assay type: binding
T3 construct: ∆N∆C-LCAT (residues 21–397), a truncation variant that lacks the dynamic N- and C-termini; made in house; host or cells: HEK293F
T3 sequence (P04180 45-421): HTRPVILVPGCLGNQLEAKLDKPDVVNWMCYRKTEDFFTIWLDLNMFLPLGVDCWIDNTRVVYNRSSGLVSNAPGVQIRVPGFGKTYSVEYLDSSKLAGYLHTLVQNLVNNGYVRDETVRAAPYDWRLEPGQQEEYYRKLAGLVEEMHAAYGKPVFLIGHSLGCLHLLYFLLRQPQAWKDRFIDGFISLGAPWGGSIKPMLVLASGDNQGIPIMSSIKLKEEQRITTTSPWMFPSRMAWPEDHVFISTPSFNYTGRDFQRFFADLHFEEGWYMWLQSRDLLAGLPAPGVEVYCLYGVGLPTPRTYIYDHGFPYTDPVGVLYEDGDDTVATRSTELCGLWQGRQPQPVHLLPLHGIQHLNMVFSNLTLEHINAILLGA
Description: as §1

[4] = biological target: T4, ∆N∆C-LCAT (Homo sapiens, UniProt P04180); experiment: Differential scanning fluorimetry; assay type: binding; details: for Thermal stabilization (DSF): ∆N∆C LCAT
T4 construct: ∆N∆C-LCAT (residues 21–397), a truncation variant that lacks the dynamic N- and C-termini; made in house; host or cells: HEK293F
T4 sequence (P04180 45-421): T3 sequence (P04180 45-421)
Description: as §1

[5] = biological target: T5, WT LCAT (Homo sapiens, UniProt P04180); experiment: MST binding assay; parameters: hydrolysis of 4-methylumbelliferyl palmitate (MUP) by full-length LCAT; made in house; host or cells: HEK293F (transient transfection, secreted)
T5 sequence (P04180 25-440): T1 sequence (P04180 25-440 R268A) with A244R
Description: MST was used to determine the binding affinity of the compounds to LCAT. Recombinant proteins were labeled with a fluorophore using the Monolith His-tag labeling RED-Tris-NTA 2nd Generation kit following manufacturer’s protocol. Compounds were titrated in a two-fold dilution series starting at 20 μM and incubated with the same volume of 100 nM labeled recombinant protein for 5 min at room temperature. Measurements were carried out in PBS containing 0.05% Tween-20 and standard capillaries using a Monolith NT.115 instrument (Nanotemper Technologies) with 50% LED excitation power, 60% MST power, MST on-time of 30 s and off-time of 5 s. Kd values were calculated by fitting the thermophoresis signal at 20 s of the thermograph using MO.AffinityAnalysis software.

## N#Cc1cnc(N2CCC(c3n[nH]c4c3C(O)(C(F)(F)F)CC(=O)N4)CC2)cc1C(F)(F)F (stereo not drawn) [compound 1, 6-(4-(4-Hydroxy-6-oxo-4-(trifluoromethyl)−4,5,6,7-tetrahydro-1H-pyrazolo[3,4-b]pyridin-3-yl)piperidin-1-yl)−4-(trifluoromethyl)nicotinonitrile]
[1]
  ∆Tm: 6.0 ˚C
[2]
  ∆Tm: 4.8 ˚C
[3]
  Thermal stabilization (DSF): stabilize
[4]; compound 1 and IDFP combined, additive effect
  ∆Tm of ∆N∆C-LCAT: 12.7 ˚C
[4]
  Thermal stabilization (DSF): stabilize
[5]
  Binding to WT LCAT by MST: does
[5]; read-out: Kd, binding to LCAT via microscale thermophoresis
  Kd: 100 ± 14 nM

## O=C1CC(O)(C(F)(F)F)c2c(ncn2C2CCN(c3cnc(C(F)(F)F)cn3)CC2)N1 (stereo not drawn) [compound 3, 7-Hydroxy-7-(trifluoromethyl)−1-(1-(5-(trifluoromethyl)pyrazin-2-yl)piperidin-4-yl)−6,7-dihydro-1H-imidazo[4,5-b]pyridin-5(4H)-one]
[3]
  Thermal stabilization (DSF): stabilize
[4]
  Thermal stabilization (DSF): stabilize

## O=C1CC(O)(C(F)(F)F)c2c(C3CCN(c4cnc(C(F)(F)F)cn4)CC3)n[nH]c2N1 (stereo not drawn) [compound 2, 4-Hydroxy-4-(trifluoromethyl)−3-(1-(5-(trifluoromethyl)pyrazin-2-yl)piperidin-4-yl)−4,5-dihydro-1H-pyrazolo[3,4-b]pyridin-6(7H)-one]
[3]
  Thermal stabilization (DSF): stabilize
[4]
  Thermal stabilization (DSF): stabilize

## O=C1CC(O)(C(F)(F)F)c2c(ncn2C2CCNCC2)N1 (stereo not drawn) [compound 6, 7-Hydroxy-1-(piperidin-4-yl)−7-(trifluoromethyl)−6,7-dihydro-1H-imidazo[4,5-b]pyridin-5(4H)-one]
[5]
  Binding to WT LCAT by MST: does not bind; also recorded: unable to bind
